Laboratory results: patent US5422342A, “2,3-disubstituted isoxazolidines, agents containing them and their use” (Hoechst Aktiengesellschaft, priority 1986, dated 1995)
Where “and” joins values, the source holds several entries; their conditions need not be identical. Equal values may be shown once.

Columns and labels:
prolyl hydroxylase = prolyl hydroxylase (Homo sapiens, UniProt P13674); assay: prolyl hydroxylase enzyme assay with preincubation (suicide inhibition); format: biochemical; conditions: concentration which inactivates 50% of the enzyme after one hour; preincubation with iron(II) ions, α-ketoglutarate and ascorbate
Sequence of prolyl hydroxylase (P13674 18-534): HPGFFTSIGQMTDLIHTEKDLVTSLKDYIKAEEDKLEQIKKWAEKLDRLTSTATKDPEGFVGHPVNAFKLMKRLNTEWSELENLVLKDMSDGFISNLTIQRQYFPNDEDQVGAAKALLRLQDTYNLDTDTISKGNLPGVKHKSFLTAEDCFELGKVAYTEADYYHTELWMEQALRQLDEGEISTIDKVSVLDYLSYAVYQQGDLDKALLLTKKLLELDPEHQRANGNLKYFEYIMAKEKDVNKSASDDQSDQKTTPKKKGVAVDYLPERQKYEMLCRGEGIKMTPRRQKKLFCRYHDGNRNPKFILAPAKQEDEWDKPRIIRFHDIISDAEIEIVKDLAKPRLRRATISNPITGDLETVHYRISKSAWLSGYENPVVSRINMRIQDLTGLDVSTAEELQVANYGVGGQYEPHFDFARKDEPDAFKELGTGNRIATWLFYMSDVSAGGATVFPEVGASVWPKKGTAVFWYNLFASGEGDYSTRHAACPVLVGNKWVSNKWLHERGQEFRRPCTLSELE
Sequence of prolyl hydroxylase (P07237 18-508 partner): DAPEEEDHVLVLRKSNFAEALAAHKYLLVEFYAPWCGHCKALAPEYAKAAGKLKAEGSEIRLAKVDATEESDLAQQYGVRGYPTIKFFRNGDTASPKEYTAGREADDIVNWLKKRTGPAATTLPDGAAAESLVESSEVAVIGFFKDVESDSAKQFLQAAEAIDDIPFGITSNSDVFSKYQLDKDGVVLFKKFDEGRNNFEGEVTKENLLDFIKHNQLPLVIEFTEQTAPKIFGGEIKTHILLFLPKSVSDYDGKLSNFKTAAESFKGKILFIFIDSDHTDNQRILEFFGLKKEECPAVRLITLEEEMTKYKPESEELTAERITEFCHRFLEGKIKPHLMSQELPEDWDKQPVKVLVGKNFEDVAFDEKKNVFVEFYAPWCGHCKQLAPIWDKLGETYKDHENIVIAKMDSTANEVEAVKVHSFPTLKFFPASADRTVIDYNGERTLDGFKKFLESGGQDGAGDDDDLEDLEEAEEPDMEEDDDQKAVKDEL
Method: The inhibitory action can be determined in an enzyme assay analogous to the method of B. Peterkofsky and R. DiBlasio Anal. Biochem. 66, 279-286 (1975). This entails underhydroxylated collagen being enzymatically hydroxylated with prolyl hydroxylase in the presence of iron(II) ions, α-ketoglutarate and ascorbate.
The suicidal nature of the inhibition is established by preincubation of the enzyme in the presence of iron(II) ions, α-ketoglutarate and ascorbate with the inhibitors for various times, and then determination of the remaining activity of the enzyme in the presence of a peptide substrate. It is possible to use for determination of the activity both the method of Peterkofsky and DiBlasio described above and other methods such as described by K. I. Kivirikko and R. Myllyla, Meth. Enzym. 82, 245-304 (1982). The concentration which inactivates 50% of the enzyme after one hour is stated.

calvarial culture = assay: inhibitory action in calvarial culture (hydroxyproline/proline quotient); format: cell-based; conditions: concentration giving 50% decrease in the hydroxyproline/proline quotient on feeding with 14C-proline
Description: The inhibitory action can also be determined in cell or tissue culture. It is possible to use for this purpose fibroblasts or other collagen-producing cells, or calvariae or other collagen-producing organs. Table 2 is a compilation of the inhibitory action of some substances according to the invention in calvarial culture. The concentration which results in a 50% decrease in the hydroxyproline/proline quotient on feeding with ^14 C-proline is stated.

[1] = system: C1q biosynthesis by macrophages; conditions: W. Muller et al., FEBS Lett. 90, 218f (1978); cited from earlier work

Compound | ID50 [60 min; μmol/l] (prolyl hydroxylase) | IC50 (calvarial culture) | effect on C1q biosynthesis by macrophages [1]
O=C(CNC(=O)C1CCON1C(=O)Cc1ccccc1)OCc1ccc([N+](=O)[O-])cc1 (centres unmarked) [4-Nitrobenzyl ester of N-phenylacetyl-Opr-Gly] | 540.0 µmol/L | 2500 µM | 
CCN(CC)C(=O)CNC(=O)C1CCON1C(=O)C1CCCN1C(C)=O (centres unmarked) [Ac--Pro--Opr--Gly--N(C2 H5)2] | 16900.0 µmol/L |  | 
CC(=O)N1CCCC1C(=O)N1OCCC1C(=O)NCC(=O)NCc1ccccc1 (centres unmarked) [Ac--Pro--Opr--Gly--NH--CH2 --C6 H5] | 6000.0 µmol/L |  | 
CC(=O)N1CCCC1C(=O)N1OCCC1C(=O)NCC(=O)NCCc1ccccc1 (centres unmarked) [Ac--Pro--Opr--Gly--NH--CH2 --CH2 --C6 H5] | 4900.0 µmol/L |  | 
CC(=O)N1CCCC1C(=O)N1OCCC1C(=O)NCC(=O)OCc1ccccc1 (centres unmarked) [Ac--Pro--Opr--Gly--OBzl] | 60.0 µmol/L |  | 
CC(=O)N1CCCC1C(=O)N1OCCC1C(=O)NCC(=O)OC(C)(C)C (centres unmarked) [Ac--Pro--Opr--Gly--OtBu] | 8000.0 µmol/L | 7500 µM | 
O=C(CNC(=O)C1CCON1C(=O)CCc1ccccc1)OCc1ccccc1 (centres unmarked) [C6 H5 --CH2 --CH2 --CO--Opr--Gly--OBzl, N-3-Phenylpropionyl-Opr--Gly--OBzl] | 2000.0 µmol/L |  | 
O=C(CNC(=O)C1CCON1C(=O)Cc1ccccc1)OCc1ccccc1 (centres unmarked) [C6 H5 --CH2 --CO--Opr--Gly--OBzl] | 1000.0 µmol/L | 2000 µM | 
O=C(CNC(=O)C1CCON1Cc1ccccc1)OCc1ccccc1 (stereo not drawn) [C6 H5 --CH2 --Opr--Gly--OBzl, C6 H5 --CH2 -Opr-Gly-OBzl] | 610.0 µmol/L |  | 
CS(=O)(=O)CCOC(=O)NC(CCC(=O)OCc1ccccc1)C(=O)N1OCCC1C(=O)NCC(=O)OCc1ccccc1 (centres unmarked) [Msc--Glu(OBzl)--Opr--Gly--OBzl] | 30.0 µmol/L |  | 
CC(NC(=O)OCc1ccccc1)C(=O)N1OCCC1C(=O)NCC(=O)OCc1ccccc1 (centres unmarked) [Z--(D)--Ala--Opr--Gly--OBzl, Z--(D)-- Ala--Opr--Gly--OBzl] | > 10000.0 µmol/L |  | 
C[C@H](NC(=O)OCc1ccccc1)C(=O)N1OCCC1C(=O)NCC(=O)OCc1ccccc1 (some centres unmarked) [Z--Ala--Opr--Gly--OBzl] | 3.0 µmol/L | 1650 µM and 2500 µM | 
CC(NC(=O)OCc1ccccc1)C(=O)N1OCCC1C(=O)NCC(=O)O (centres unmarked) [Z--Ala--Opr--Gly--OH] | 330.0 µmol/L |  | 
CC(NC(=O)OCc1ccccc1)C(=O)N1OCCC1C(=O)NCC(=O)OC(C)(C)C (centres unmarked) [Z--Ala--Opr--Gly--OtBu, Z--Ala--Opr--Gly--OtBU] | 40.0 µmol/L |  | 
O=C(O)CCC(NC(=O)OCc1ccccc1)C(=O)N1OCCC1C(=O)NCC(=O)OCc1ccccc1 (centres unmarked) [Z--Glu--Opr--Gly--OBzl] | 5000.0 µmol/L |  | 
O=C(CNC(=O)C1CCON1C(=O)C(CCCCN1C(=O)c2ccccc2C1=O)NC(=O)OCc1ccccc1)OCc1ccccc1 (centres unmarked) [Z--Lys(Pht)--Opr--Gly--OBzl] | 11.0 µmol/L |  | 
O=C(CNC(=O)C1CCON1C(=O)C(Cc1ccccc1)NC(=O)OCc1ccccc1)OCc1ccc(F)cc1 (centres unmarked) [Z--Phe--Opr--Gly--O--CH2 --C6 H4-4-F] | 0.8 µmol/L |  | 
O=C(CNC(=O)C1CCON1C(=O)C(Cc1ccccc1)NC(=O)OCc1ccccc1)OCCc1ccccc1 (centres unmarked) [Z--Phe--Opr--Gly--O--CH2 --CH2 --C6 H5] | 0.9 µmol/L |  | 
O=C(CNC(=O)C1CCON1C(=O)C(Cc1ccccc1)NC(=O)OCc1ccccc1)OCc1ccccc1 (stereo not drawn) [Z--Phe--Opr--Gly--OBzl, Z-Phe-Opr-Gly-OBzl] | 0.8 µmol/L |  | 
N#Cc1ccc(C(=O)CNC(=O)C2CCON2C(=O)C(Cc2ccccc2)NC(=O)OCc2ccccc2)cc1 (centres unmarked) [Z--Phe--Opr--NH--CH2 --CO--C6 H4-4-CN, ZPheOprNHCH2 COC6 H4-4-CN] | 1.1 µmol/L |  | 
O=C(NC(Cc1ccccc1)C(=O)N1OCCC1C(=O)NCC(=O)c1ccccc1)OCc1ccccc1 (centres unmarked) [Z--Phe--Opr--NH--CH2 --CO--C6 H5, ZPheOprNHCH2 COC6 H5] | 2.4 µmol/L |  | 
CN(CC(=O)OCc1ccccc1)C(=O)C1CCON1C(=O)C(Cc1ccccc1)NC(=O)OCc1ccccc1 (centres unmarked) [Z--Phe--Opr--Sar-- OBzl, Z--Phe--Opr--Sar--OBzl] | > 10000.0 µmol/L |  | 
CC(C)(C)OC(=O)CNC(=O)C1CCON1C(=O)C1CCCN1C(=O)OCc1ccccc1 (centres unmarked) [Z--Pro--Opr--Gly--OtBu] |  | 550 µM | 
O=C(CNC(=O)C1CCON1C(=O)C1Cc2ccccc2CN1C(=O)OCc1ccccc1)OCc1ccccc1 (centres unmarked) [Z--Tic--Opr--Gly--OBzl] | 1.5 µmol/L |  | 
O=C(CNC(=O)C1CCON1C(=O)C(Cc1ccc(O)cc1)NC(=O)OCc1ccccc1)OCc1ccccc1 (centres unmarked) [Z--Tyr--Opr--Gly--OBzl] | 2.4 µmol/L |  | 
CC(C)C(NC(=O)OCc1ccccc1)C(=O)N1OCCC1C(=O)NCC(=O)OCc1ccccc1 (centres unmarked) [Z--Val--Opr--Gly--OBzl] | 40.0 µmol/L | 380 µM | 
O=C(CCc1ccccc1)CNC(=O)C1CCON1C(=O)C(Cc1ccccc1)NC(=O)OCc1ccccc1 (stereo not drawn) [Z-Phe-Opr-NH--CH2 --CO--CH2 --CH2 --C6 H5] | 3.4 µmol/L |  | 
c1ccc(-c2ccccn2)nc1 [α,α-dipyridyl] |  |  | inhibition of C1q biosynthesis by macrophages
HPheOprNHCH2 COC6 H4 -4-Cl [H--Phe--Opr--NH--CH2 --CO--C6 H4-4-Cl] | 15.5 µmol/L |  | 
Z-Phe(r)-Opr-Gly-OBzl [Z--Phe(r)--Opr--Gly--OBzl] | 1.1 µmol/L |  | 
